Assays:
IP3 receptor = details: Gafni et al., 1997; cited from earlier work
NF-κB [1] = experiment: Cell-free EMSA of NF-κB binding activity in brain cortex cytoplasmic fraction; format: biochemical, rat; details: 1 h; calcium 1 μM to 10 mM; 10 μM BAPTA-AM alone or with 10 μM calcium
Experimental: (§1) Total cell extracts were prepared as described (Baeuerle and Baltimore, 1988, Cell 53:211-217). Briefly, cells were harvested, washed twice with ice-cold PBS and lysed for 30 min at 4° C. in Totex buffer (20 mM HEPES, pH 7.9, 350 mM NaC1, 20% glycerol, 1% NP-40, 1 mM MgC12, 0.5 mM EDTA, 0.1 mM EGTA, 5 mM DTT, 0.1% PMSF, 1% aprotinin, 4 μg/ml leupeptin). Samples were centrifuged at 14,000× g for 10 min and aliquots of supernatant were collected and stored at −70° C. until taken for assay. The protein content of the extract (supernatant) was measured by Bradford method (BIO-RAD Laboratories, Ercules, Calif., USA). […]
(§2) After 20 min at room temperature, reaction products were separated on a 7% non-denaturing polyacrylamide gel. […] Radioactivity of dried gels was detected by exposure to Kodak X-Omat film and images on the developed film were scanned into a computer using a UMAX 1200s scanner. […]

[2] = system: IP3 receptors on microsomes; experiment: Microsome extract (MSE) effect on cytoplasmic NF-κB binding activity; format: biochemical, rat; details: direct activation of IP3 receptors on microsomes with IP3
Experimental: Cerebral cortices from adult female Sprague-Dawley rats were homogenized (20 strokes at 300 rpm) with a Teflon homogenizer in ice-cold buffer containing 1 mM EDTA, 0.32 M sucrose, 0.1 mM dithiothreitol and 1 mM HEPES as described previously (Chen et al., 1998, Diabetes 47:874-81) and cytoplasmic and microsome fractions were isolated by differential centrifugation. Briefly, tissue fragments and cellular debris were removed by centrifugation at 500 g for 10 min and supernatants were centrifuged at 20,000 g for 20 min to pellet intact mitochondria and nuclei. The supernatant was then centrifuged at 100,000 g for 1 h in order to obtain the cytoplasmic fraction and the microsomal pellet enriched in endoplasmic reticulum and golgi membranes. Microsome extracts (MSE) were prepared by suspending microsomes in 1:100 v/v ice-cold buffer and centrifuging at 100,000× g for 1 hr. Microsomes were then re-suspended in 1:2 v/v volume buffer and treated as described below. At the end of the treatment, the suspension was centrifuged at 100,000 g for 1 h, and supernatants were used as MSE. For experiments involving incubation of MSE with cytoplasmic extract, 3 μl of MSE were added to 10 μl cytoplasmic extract and mixtures were incubated at room temperature for 1 h.
[…] After 1 h at room temperature, samples were examined for NF-κB binding activity.
Indeed, the role calcium plays in this paradigm seems to be as an intraluminal signal.

CREB [3] = experiment: EMSA of CREB binding activity in cultured primary cortical neurons; format: cell-based, rat
Experimental: (§3) Cerebral cortices were removed from embryonic day 18 Sprague-Dawley rats (Harlan, Indianapolis, Ind.). Cells were dissociated as described previously (Mattson et al., 1995, J. Neurochem. 65:1740-1751.) and were seeded into polyethyleneimine-coated 60 mm culture dishes containing Eagle's Minimum Essential Medium supplemented with 26 mM NaHCO3, 40 mM glucose, 20 mM KCl, 1 mM sodium pyruvate, 10% (v/v) heat-inactivated fetal bovine serum (Sigma, St. Louis, Mo.), and 0.001% gentamycin sulfate. After a 3-5 h incubation period to allow for cell attachment, the medium was replaced with 2 ml of Neurobasal Medium with B27 supplements (GIBCO Life Technologies, Grand Island, N.Y.). Previous observations have shown that greater than 80% of the cells that attach in the first few hours after plating will survive longer than 7 days in Neurobasal Medium with no additional neurotrophic factors. Experimental treatments were performed on 7-to-9-day-old neuronal cultures in which there were approximately 5% contaminating glial cells.
as §1, §2
(§4) The possible involvement of endoplasmic reticulum pools of intracellular calcium regulated by IP3 receptors in controlling basal levels of NF-κB was investigated using Xestospongin C (XeC) a specific membrane permeable modulator of IP3-mediated Ca^2+release (Gafni et al., 1997, Neuron 19:723-733; Hu et al., 1999, J. Biol. Chem. 274:33995-33998), and thapsigargin (Tg), a specific inhibitor of ER calcium/ATPase (Thastrup et al., 1990, Proc. Natl. Acad. Sci. USA 87:2466-2470; Davidson and Varhol, 1995, J. Biol. Chem. 270:11731-11734.). Cultured primary cortical neurons were treated with either 1 μM XeC, 100 nM Tg or vehicle for 6 h and protein extracts were analyzed for NF-κB binding activity by EMSA electrophoresis.

NF-κB [4] = experiment: EMSA of NF-κB binding activity in cultured primary cortical neurons; format: cell-based, rat; details: 6 h; for induction of NF-κB binding activity by the agent alone: cortical neurons, 100 ng/ml TNFα, 100 nM Tg or 20 μM glutamate
Experimental: as §3, with “Previous observations have shown that greater than 80% of the cells that attach in the first few hours after plating will survive longer than 7 days in Neurobasal Medium with no additional neurotrophic factors.” left out
Total cell extracts were prepared as described (Baeuerle and Baltimore, 1988, Cell 53:211-217). Briefly, cells were harvested, washed twice with ice-cold PBS and lysed for 30 min at 4° C. in Totex buffer (20 mM HEPES, pH 7.9, 350 mM NaC1, 20% glycerol, 1% NP-40, 1 mM MgC12, 0.5 mM EDTA, 0.1 mM EGTA, 5 mM DTT, 0.1% PMSF, 1% aprotinin, 4 μg/ml leupeptin). Samples were centrifuged at 14,000× g for 10 min and aliquots of supernatant were collected and stored at −70° C. until taken for assay. The protein content of the extract (supernatant) was measured by Bradford method (BIO-RAD Laboratories, Ercules, Calif., USA).
After 20 min at room temperature, reaction products were separated on a 7% non-denaturing polyacrylamide gel. Competition experiments were performed by incubating extracts with labeled oligonucleotide probe in the presence of 100-fold molar excess unlabeled NF-KB or CREB oligonucleotide. To characterize the NF-KB complexes, supershift assays were performed. Extracts were preincubated for 45 min at room temperature with antibodies recognizing either p50 or p65 sub-units of NF-κB (Santa Cruz Biotechnology, Santa Cruz, Calif.) or c-Fos (Oncogene Research Products, Cambridge, Mass.). The mixtures were further incubated with ^32P-labeled probe and resolved as described above. Radioactivity of dried gels was detected by exposure to Kodak X-Omat film and images on the developed film were scanned into a computer using a UMAX 1200s scanner. Densitometry was performed using Scion Image software (Scion Inc., Frederick, Md.). Paint Shop Pro software (JASC Inc. Minneapolis, Minn.) was used for preparation of the final figures.
as §4

CREB [5] = experiment: Cell-free EMSA of CREB binding activity in brain cortex cytoplasmic fraction; format: biochemical, rat; details: calcium 10 μM, 100 μM and 1 mM, 1 h
Experimental: as §1, §2

C1CCC[C@H]2CCCN3CC[C@H](CCCCCC[C@H]4CCCN5CC[C@H](CC1)O[C@H]45)O[C@H]23 [ArB, Araguspongine B]
block of IP3-mediated calcium release (IP3 receptor): potent blockers

CC(=O)OCOC(=O)CN(CC(=O)OCOC(C)=O)c1ccccc1OCCOc1ccccc1N(CC(=O)OCOC(C)=O)CC(=O)OCOC(C)=O [BAPTA-AM]
NF-κB binding activity in cytoplasmic fraction (NF-κB [1]): had no affect

O[C@@]12CCCCCC[C@H]3CCN4CCC[C@@H](CCCCCC[C@H]5CCN(CCC1)[C@@H]2O5)[C@H]4O3 [DMXeB, demethylxestospongin B]
block of IP3-mediated calcium release (IP3 receptor): potent blockers

O=P(O)(O)O[C@@H]1[C@H](O)[C@H](O)[C@@H](OP(=O)(O)O)[C@H](OP(=O)(O)O)[C@H]1O [IP3, inositol-1,4,5 triphosphate, reference compound]
NF-κB stimulating properties of MSE from treated microsomes [2]: NF-κB stimulating properties similar to that seen with Tg

C/C=C(/C)C(=O)O[C@H]1C(C)=C2[C@H]([C@@H]1OC(=O)CCCCCCC)[C@@](C)(OC(C)=O)C[C@H](OC(=O)CCC)[C@@]1(O)[C@H]2OC(=O)[C@@]1(C)O [Tg, thapsigargin, reference compound]
CREB binding activity (CREB [3]; cultured primary cortical neurons, 6 h, 1 μM XeC or 100 nM Tg, data not shown): slightly augmented CREB binding activity; however, this was not statistically significant
induction of NF-κB binding activity by the agent alone (NF-κB [4]): Induction of NF-κB binding activity was observed
basal NF-κB binding activity relative to control levels (NF-κB [4]; cultured primary cortical neurons, 1 μM XeC or 100 nM Tg, EMSA): statistically significant (p<0.05) elevation

O[C@@]12CCCCCC[C@H]3CCN4CCC[C@H](CCCCCC[C@H]5CCN(CCC1)[C@@H]2O5)[C@H]4O3 [XeD]
block of IP3-mediated calcium release (IP3 receptor): potent blockers

[Ca+2] [calcium]
NF-κB binding activity in cytoplasmic fraction (NF-κB [1]): none of the calcium concentrations used increased NF-κB binding activity
CREB binding activity in cytoplasmic fraction (CREB [5]): greatly enhanced

tumor necrosis factor α [TNFα, reference compound]
binding activity of CREB, agent alone (CREB [3]; cortical neurons, XeC 30 min pretreatment, 100 ng/ml TNFα 6 h, FIG. 2a): neither TNFα nor XeC alone affected the binding activity of CREB
induction of NF-κB binding activity by the agent alone (NF-κB [4]): statistically significant (p<0.05) enhancement
